Assay results: patent US20220401514A1, “ANTIMICROBIAL, BACTERIOPHAGE-DERIVED POLYPEPTIDES AND THEIR USE AGAINST GRAM-NEGATIVE AND ACID-FAST BACTERIA” (CONTRAFECT CORPORATION, priority 2019, published 2022)

Experiments:
[1] = test system: eight different strains of five species of Gram-negative bacteria; assay: MBEC in eight strains of five species of Gram-negative bacteria; assay type: cell-based; details: 24 h biofilm in LB, 16 h treatment
Protocol: Determination of Minimal Biofilm Eradicating Concentrations (MBEC). […] The OD600 of extracted crystal violet was determined. The MBEC value of each sample was determined as the minimum drug concentration required to remove >95% of biofilm biomass as assessed by crystal violet quantitation (in comparison to untreated controls).
MBEC values were likewise determined for Chp2, Chp2-M1, and Chp10-M1 in eight different strains of five species of Gram-negative bacteria. […] The films were then washed and stained with crystal violet to visualize the MBEC.

[2] = test system: Klebsiella pneumoniae strain 1139; assay: Checkerboard assay (FICI) with antibiotics, K. pneumoniae; assay type: cell-based
Protocol: Checkerboard assays. […] Checkerboards were constructed by first preparing columns of a 96-well polypropylene microtiter plate, in which each well had the same amount of antibiotic diluted 2-fold along the horizontal axis. […] Summation fractional inhibitory concentration index (FICIs) were calculated for each drug and the minimum FICI was used to determine synergy. FICIs were calculated as follows: FICI=FIC A+FIC B, where FIC A is the MIC of each antibiotic in the combination/MIC of the each antibiotic alone, and FIC B is the MIC of each Chp peptide in the combination/MIC of each Chp peptide alone. The combination is considered synergistic when the FICI is ≤0.5, strongly additive when the FICI is >0.5 to <1, additive with the FICI is 1-<2, and antagonistic when the FICI is ≥2.

[3] = checkerboard, in combination with Chp4-M1
[4] = checkerboard, in combination with Chp6-M1
[5] = checkerboard, in combination with Chp10-M1
[6] = checkerboard, in combination with Unp2-M1

SMILES: NC[C@H]1O[C@H](O[C@H]2[C@H](O)[C@@H](O[C@H]3O[C@H](CO)[C@@H](O)[C@H](N)[C@H]3O)[C@H](N)C[C@@H]2N)[C@H](N)C[C@@H]1O [tobramycin, reference compound]
- MBEC ([1]; A. baumanni (ATCC BAA-747)): 0.03 µg/mL
- MBEC ([1]; E. cloacae (CCUG 63317)): <0.03 µg/mL
- MBEC ([1]; E. coli (ATCC 25922)): <0.03 µg/mL
- MBEC ([1]; E. coli (ATCC 35329)): <0.03 µg/mL
- MBEC ([1]; E. coli (EC2)): <0.03 µg/mL
- MBEC ([1]; K. pneumoniae (ATCC 700603)): 1 µg/mL
- MBEC ([1]; K. pneumoniae (KP1)): 1 µg/mL
- MBEC ([1]; P. aeruginosa (ATCC 27853)): 0.03 µg/mL
- Antibiotic FIC [2, 3]: 0.125
- Antibiotic MIC [2, 3]: 3.906 ng/mL
- Antibiotic FIC [2, 4]: 0.125
- Antibiotic MIC [2, 4]: 3.906 ng/mL
- Antibiotic FIC [2, 5]: 0.125
- Antibiotic MIC [2, 5]: 3.906 ng/mL
- Antibiotic FIC [2, 6]: 0.125
- Antibiotic MIC [2, 6]: 3.906 ng/mL
- Antibiotic FIC ([2]; combined with Chp2): 0.25
- Antibiotic MIC in checkerboard ([2]; combined with Chp2): 7.812 ng/mL
- Antibiotic FIC ([2]; combined with Chp2-M1): 0.25
- Antibiotic MIC in checkerboard ([2]; combined with Chp2-M1): 3.906 ng/mL
